How the values were obtained:
[1] = Ratio of drug concentration in human blood to plasma at 5 uM incubated for 30 mins by LC-MS/MS analysis; format: ADME, cell-free; conditions: whole blood
[2] = Plasma protein binding in human assessed as unbound fraction by rapid equilibrium dialysis analysis; format: ADME, cell-free
[3] = Metabolic stability in human hepatocytes assessed as half life measured per million cells incubated upto 60 mins by LC-MS/MS analysis; format: ADME, cell-based, Hepatocyte
[4] = Metabolic stability in human hepatocytes assessed as intrinsic clearance measured per million cells incubated upto 60 mins by LC-MS/MS analysis; format: ADME, cell-based, Hepatocyte; conditions: read-out: CLH

Structure (SMILES) | blood plasma ratio at 0.5 h, 5 µM [1] | fraction unbound [2] | half-life [3] | hepatocyte CLint [4]
CCN(CC)CCCC(C)Nc1ccnc2cc(Cl)ccc12 (configuration not stated) [CHLOROQUINE] | 4.93 | – | – | –
CNS(=O)(=O)Cc1ccc2[nH]cc(CCN(C)C)c2c1 | – | 0.68 | – | –
O=C(O)/C=C/C(=O)O.[2H]C([2H])([2H])N(C([2H])([2H])[2H])C([2H])([2H])Cc1c[nH]c2ccccc12 | – | – | 3.45 h | 9.3 µL/min/1e6 cells
O=C(O)Cc1ccccc1Nc1c(Cl)cccc1Cl [DICLOFENAC] | 0.63 | – | – | –
O=C(O)/C=C/C(=O)O.[2H]C([2H])([2H])N(CCc1c[nH]c2ccccc12)C([2H])([2H])[2H] | – | – | 1.95 h | 15.2 µL/min/1e6 cells
